Where a SMILES comes first, the peptide text is derived from it. The star is where a group is joined. Cbz = O=C(OCc1ccccc1)*
Columns and labels:
[1] = system: mutant Q11E β-sarcoglycan; assay: Quadritransfected cell model: immunohistochemical labelling of mutant Q11E β-sarcoglycan; format: cell-based, human; conditions: dMJ 5, 50 or 100 μM; FIG. 12C
Method: (§1) A second aspect of the invention relates to the assay used for in vitro assessment of the efficacy of inhibitors of the endoplasmic reticulum associated degradation (ERAD) pathway, used for the treatment of sarcoglycanopathies. This assay consists of the following steps: • co-transfection of cells with the four sarcoglycan genes (γ-, α-, β- and δ-), of which one carries the mutation to be tested; • incubation for several hours in the presence of the inhibitor; • localisation of the sarcoglycan complex.
C/Immunohistochemical labelling of β-sarcoglycan in cells quadritransfected with the three α-, γ- and δ-sarcoglycans and mutant Q11E β-sarcoglycan with or without 1-deoxymannojirimycin (dMJ) 5, 50 or 100 μM.
B/Immunohistochemical labelling of β-sarcoglycan in cells quadritransfected with the three α-, γ- and δ-sarcoglycans and mutant Q11E β-sarcoglycan with or without kifunensin 5 μM.
(§2) Cross-sections were dried, then rehydrated in PBS or fixed cells were treated for 20 min with 1% triton in PBS, then incubated for 30 min at room temperature (RT) in PBS containing 15% foetal calf serum. […]

[2] = system: mutant R77C α-sarcoglycan; assay: Quadritransfected cell model: membrane targeting of mutant R77C α-sarcoglycan, immunohistochemical labelling; format: cell-based, human
Method: as §1
(§3) Cross-sections were dried, then rehydrated in PBS or fixed cells were treated for 20 min with 1% triton in PBS, then incubated for 30 min at room temperature (RT) in PBS containing 15% foetal calf serum. Cross-sections were incubated with polyclonal anti-sarcoglycan antibodies (α-sarcoglycan: dilution 1/1000, targeting amino acids 366-379 of human α-sarcoglycan; β-sarcoglycan: dilution 1/20, NCL-b-SARC (Novocastra); γ-sarcoglycan: dilution 1/20, NCL-g-SARC (Novocastra); dystrophin: dilution 1/20, NCL-DYS2 (Novocastra); and calreticulin: dilution 1/70, ab4109 (Abcam)) for 1 to 2 hours at RT then rinsed 3 times in PBS. […] Cross-sections were then rinsed three times in PBS, mounted with fluoromount-G (Southern Biotech 0100-01) and then observed with a confocal microscope (Leica). Immunohistochemical analysis of human biopsy specimens was performed as described in Hackman et al. (9).
NIH3T3 or 911 cells were grown in Dulbecco's Modified Eagle Medium supplemented with glutamine, gentamicin and 10% foetal calf serum. Cells were transfected using […] Fugene (ROCHE) per 1 μg plasmid. 0.5 μg of each plasmid (α-SG or α-SG-R77C and β-SG, γ-SG, δ-SG) was used per well in 6-well dishes. For treatment by inhibitors, 43 hours after transfection cells were incubated for 5 hours with either the mannosidase inhibitor (kifunensin 5 μM, VWR) or the proteasome inhibitor (MG132 5 μM diluted in DMSO, Sigma). Cells were then rinsed in PBS and fixed with 3.7% formaldehyde in PBS for 15 min at RT, and rinsed three more times in PBS before immunohistochemical labelling. […]

[3] = system: mutant E262K δ-sarcoglycan; assay: Quadritransfected cell model: immunohistochemical labelling of mutant E262K δ-sarcoglycan; format: cell-based, human; conditions: dMJ 5 or 100; FIG. 12B
Method: as §1
B/Immunohistochemical labelling of δ-sarcoglycan in cells quadritransfected with the three α-, β- and γ-sarcoglycans and mutant E262K δ-sarcoglycan with or without 1-deoxymannojirimycin (dMJ) 5 or 100
FIG. 13: A/Immunohistochemical labelling of δ-sarcoglycan in cells quadritransfected with the three α-, β- and γ-sarcoglycans and mutant E262K δ-sarcoglycan with or without kifunensin 5 μM.
as §2

[4] = system: mutant α-sarcoglycan in Sgca−/− muscle; assay: Intramuscular inhibitor in Sgca−/− mice injected with AAV-SGCA77C vector: α-sarcoglycan labelling of muscle; format: in vivo, mouse; conditions: AAV-SGCA77C in tibialis anterior, 10 μM kifunensin intramuscular over one week, FIG. 11
Method: as §3
The rAAV2/1 viral preparations were injected (10^10 viral genomes (vg) in 30 μl total volume) in the left tibialis anterior muscle of Sgca−/− mice. On days 20, 22, 25 and 27 after injection, 10 μM kifunensin or 20 μM MG132 were injected into the muscle (i.e. either twice or 4 times the concentrations used in vitro to take into account diffusion within the muscle). One day prior to sacrifice (day 27), mice were injected intraperitoneally with Evans blue dye. […]

[5] = cited from earlier work

## OC[C@H]1NC[C@@H](O)[C@@H](O)[C@@H]1O [1-deoxymannojirimycin]
[1]
  restoration for mutation Q11E on sub-unit β: confirmed our working hypothesis
[2]; 100 μM 1-deoxymannojirimycin, FIG. 12A
  membrane targeting of mutant α-sarcoglycan (R77C): efficacy of this substance for restoring membrane targeting
[3]
  restoration for mutation E262K on sub-unit δ: confirmed our working hypothesis

## O=C1N[C@@H]2[C@@H](O)[C@@H](O)[C@H](O)[C@@H](CO)N2C1=O [kifunensin, Kifunensin]
[4]
  intracellular α-sarcoglycan aggregates in muscle: absence of aggregates
[5]
  water solubility: water-soluble
[2]; kifunensin 5 μM, 5 hours, 43 hours after transfection, NIH3T3 or 911 cells, FIG. 10
  membrane targeting of mutant α-sarcoglycan (R77C): restore membrane targeting

## CC(C)C[C@@H](C=O)NC(=O)[C@H](CC(C)C)NC(=O)[C@H](CC(C)C)NC(=O)OCc1ccccc1 [MG132] (Cbz-Leu-Leu-Leu-aldehyde)
[2]; MG132 5 μM, 5 hours, 43 hours after transfection, NIH3T3 or 911 cells, FIG. 9
  membrane targeting of mutant α-sarcoglycan (R77C): restored membrane targeting

Source: US8673935B2, “Drugs for the treatment of sarcogylcanopathies” (Genethon, priority 2006, dated 2014)
